The values that follow come from patent US4393228A, “Epoxysuccinic acid derivatives” (Taisho Pharmaceutical Co., Ltd., priority 1977, dated 1983).

Like-named read-outs stand apart in the source and are kept apart here.

Series [1] concerns adjuvant induced polyarthritis. The series can be described thus: Inhibition of adjuvant induced polyarthritis in rats (hind paw volume). The class given is in vivo, Sprague Dawley rat. To be noted: Rattus norvegicus. As to the method: Effect of the compounds of this invention on the development of adjuvant-induced polyarthritis in rats was assayed as follows: Adjuvant arthritis was produced by a single intracutaneous injection of 0.1 ml of the adjuvant mixture containing heat-killed mycobacteria of the human Aoyama B strain suspended in liquid paraffin in 0.6% in the middle part of the distal tail of Sprague Dawley rat (female, 8 weeks old). […] The activity was measured as the mean inhibition percent for the increase of the hind paw volume of the 8 rats/group on the days 17 and 23 on which the legs become inflamed and reach maximum volumes. The compound Nos. in Table 2 are as defined in Examples as described hereinafter.

Series [2] deals with T1, papain (Carica papaya, UniProt P00784).
T1 construct: purchased Sigma Chem. Co
T1 sequence (P00784 134-345): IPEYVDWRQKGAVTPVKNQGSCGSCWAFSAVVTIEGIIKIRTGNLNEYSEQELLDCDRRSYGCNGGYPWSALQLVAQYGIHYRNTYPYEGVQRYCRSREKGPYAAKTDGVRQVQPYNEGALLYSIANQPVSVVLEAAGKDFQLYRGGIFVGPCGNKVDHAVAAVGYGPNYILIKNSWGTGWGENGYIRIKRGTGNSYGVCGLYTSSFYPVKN
The experiment in a line: Papain inhibitory activity (milk casein digestion). It is filed as biochemical. To be noted: papain 80 μg/ml 0.5 ml, cysteine, pH 6.8, 1% milk casein, 40° C., 10 minutes. The essentials:
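Papain (80 μg/ml stock) preincubated 15 min at 40 °C with inhibitor, cysteine/EDTA activator and phosphate buffer pH 6.8. Then 1% milk casein digested 10 min at 40 °C, stopped with trichloroacetic acid and filtered; filtrate absorbance at 280 nm gives percent inhibition versus no-inhibitor control.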

The test system of series [3] is thiol proteases. The following applies: U.S. Pat. No. 3,911,111; cited from earlier work.
The conditions of series [4]: U.S. Pat. No. 3,911,111; cited from earlier work.
The conditions of series [5]: prior art compound; cited from earlier work.
[6] abbreviates: 408 h, 100 mg/kg of body weight, daily oral, day 17, read-out: Inhibition % 17 days (increase of hind paw volume).
Setting [7] is: 552 h, 100 mg/kg of body weight, daily oral, day 23, read-out: Inhibition % 23 days (increase of hind paw volume).
Where [8] appears, read: po, 408 h, read-out: Inhibition % 17 days (increase of hind paw volume).
Where [9] appears, read: po, 552 h, read-out: Inhibition % 23 days (increase of hind paw volume).

Consider `O=C(OCC1CCCO1)[C@@H]1O[C@H]1C(=O)OCC1CCCO1` (relative stereo) [EP-75, di-tetrahydro-2-furanmethyl epoxysuccinate], for which the inhibition in vivo at 100 mg/kg is 89.6% in series [1] (setting [6]) and 41% in series [1] (setting [7]). The “ID50 (amount of inhibitor for 50% inhibition)” value in series [2] is reported as 1.65 γ.

For the molecule `O=C(OCc1cccs1)[C@@H]1O[C@H]1C(=O)OCc1cccs1` (relative stereo) [EP-79, di-2-thenyl epoxysuccinate], the inhibition in vivo at 100 mg/kg is 64.3% in series [1] (setting [6]) and 90.2% in series [1] (setting [7]). In series [2], the “ID50 (amount of inhibitor for 50% inhibition)” value is listed as 0.75 γ.

Regarding `O=C(OCc1cccc2ccccc12)[C@@H]1O[C@H]1C(=O)OCc1cccc2ccccc12` (relative stereo) [EP-81, di-1'-naphthylmethyl epoxysuccinate], the inhibition in vivo at 100 mg/kg worked out at 64.3% in series [1] (setting [6]) and 83.6% in series [1] (setting [7]). Moreover, the “ID50 (amount of inhibitor for 50% inhibition)” value in series [2] is recorded as 1.30 γ.

Regarding `COc1ccc(COC(=O)[C@@H]2O[C@H]2C(=O)O)cc1` (relative stereo) [EP-102, p-methoxybenzyl potassium epoxysuccinate], the inhibition in vivo at 100 mg/kg in series [1] (setting [6]) was 28%; in series [1] (setting [7]), 31%. In addition, the “ID50 (amount of inhibitor for 50% inhibition)” value in series [2] is on record as 0.36 γ.

`O=C(O)[C@H]1O[C@@H]1C(=O)OCc1ccc(Cl)cc1` (relative stereo) [EP-116, p-chlorobenzyl potassium epoxysuccinate]: the values for the inhibition in vivo at 100 mg/kg in series [1] (setting [6]) and in series [1] (setting [7]) were 35% and 33.5%, respectively. Further, in series [2], the “ID50 (amount of inhibitor for 50% inhibition)” value is 0.32 γ.

On to `O=C(OCc1cccc(F)c1)[C@H]1O[C@@H]1C(=O)OCc1cccc(F)c1` (relative stereo) [EP-121, di-m-fluorobenzyl epoxysuccinate], for which the inhibition in vivo at 100 mg/kg in series [1] (setting [6]) worked out at 53.6%; in series [1] (setting [7]) it was 38.9%. Besides, the “ID50 (amount of inhibitor for 50% inhibition)” value in series [2] is on record as 0.46 γ.

On to `O=C(OCCCc1ccccc1)[C@H]1O[C@@H]1C(=O)OCCCc1ccccc1` (relative stereo) [EP-131, di-3'-phenylpropyl epoxysuccinate], for which the inhibition in vivo at 100 mg/kg in series [1] (setting [6]) was 57.1%; in series [1] (setting [7]) it was 49.2%. Besides, the “ID50 (amount of inhibitor for 50% inhibition)” value in series [2] is recorded as 11.36 γ.

For the molecule `CCOC(=O)[C@H]1O[C@@H]1C(=O)O` (relative stereo) [EP-137, ethyl potassium epoxysuccinate], the inhibition in vivo at 100 mg/kg is 40% in series [1] (setting [6]) and 38.5% in series [1] (setting [7]). Further, the “ID50 (amount of inhibitor for 50% inhibition)” value in series [2] is 2.08 γ.

`O=C(O)[C@H]1O[C@@H]1C(=O)OCc1ccccc1` (relative stereo) [EP-143, benzyl potassium epoxysuccinate]: the inhibition in vivo at 100 mg/kg in series [1] (setting [6]) amounted to 45.1%; in series [1] (setting [7]), 35.6%. Also, the “ID50 (amount of inhibitor for 50% inhibition)” value in series [2] is 0.15 γ.

With `CCCCCOC(=O)[C@H]1O[C@@H]1C(=O)O` (relative stereo) [EP-144, n-amyl potassium epoxysuccinate], the inhibition in vivo at 100 mg/kg is 33.3% in series [1] (setting [6]) and 32.1% in series [1] (setting [7]). Moreover, the “ID50 (amount of inhibitor for 50% inhibition)” value in series [2] is 0.34 γ.

In the case of `CC(C)C[C@H](NC(=O)[C@H]1O[C@@H]1C(=O)O)C(=O)NCCCCN=C(N)N` [E-64], the “thiol protease inhibitory activity” value in series [3] is on record as “possessing thiol protease inhibitory activity”. In series [4], the anti-inflammatory activity entry is on record as “anti-inflammatory activity”. The “acceleration of vascular permeability (side effect)” value in series [5] is on record as “acceleration of vascular permeability”.

`CC(C)C[C@H](NC(=O)C1OC1C(=O)[O-])C(=O)[O-].[K+].[K+]` (stereo partly drawn) [EP-174, N-(3-carboxyoxirane-2-carbonyl)-L-leucine dipotassium salt]: the figures for the inhibition in vivo at 100 mg/kg in series [1] (setting [8]) and in series [1] (setting [9]) were 30.5% and 29%, respectively. Further, the “ID50 (amount of inhibitor for 50% inhibition)” value in series [2] is on record as 0.20 γ.

As to `O=C([O-])C1OC1C(=O)N[C@@H](Cc1ccccc1)C(=O)[O-].[K+].[K+]` (stereo partly drawn) [EP-175, N-(3-carboxyoxirane-2-carbonyl)-L-phenylalanine dipotassium salt], the inhibition in vivo at 100 mg/kg in series [1] (setting [8]) came out at 32%; in series [1] (setting [9]) it was 31.5%. For the same molecule, the “ID50 (amount of inhibitor for 50% inhibition)” value in series [2] is listed as 1.90 γ.
